In PubChem BioAssay (NCI) one finds TGI and GI50 data, which are given here for eight compounds.

Common to all, as to test: NCI tumour cell line growth inhibition, 48 h
The subject of experiment [1] is BT-549 breast.
Experiment [2] relates to HOP-62 NSCLC.
In experiment [3] the test system is KM12 colon.
The subject of experiment [4] is OVCAR-5 ovarian.
The test system of experiment [5] is OVCAR-8 ovarian.
Experiment [6] relates to PC-3 prostate.
Experiment [7] deals with SK-MEL-2 melanoma.
Experiment [8] concerns SNB-19 CNS.
For experiment [9], the system named is TK-10 renal.
Experiment [10] relates to UACC-62 melanoma.

Molecules are shown by their SMILES. Several values for one entry are separate records, joined by “and”; a condition that tells them apart may be missing. Equal values may be shown once.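 Exposure lasted 48 hours, with cells grown in 96-well plates and compounds tested at five concentrations. GI50 marks 50% less growth. At the TGI there is no net growth.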

Take `COC(=O)Nc1nc2ccccc2c(=O)[nH]1`: the TGI in experiment [1], in [2], in [3], in experiment [4], in experiment [5] and in experiment [6] was above 100 µM each time. The TGI in experiment [7], in [8], in experiment [9] and in experiment [10] was above 100 µM each time.

For `Cc1cc2c(F)c(Oc3ncnn4cc(OC[C@@H](C)OC(=O)[C@H](C)N)c(C)c34)ccc2[nH]1`, the GI50 is 8.43 µM in experiment [1]; 10.3 µM in experiment [2]; 7.68 µM in experiment [3]; 14.9 µM in [4]; 8.96 µM in experiment [5]; 5.28 µM in [6]. Besides, the GI50 is 19.9 µM in experiment [7], 9.99 µM in experiment [8], 13.5 µM in experiment [9] and 8.67 µM in experiment [10]. Also, the TGI in experiment [1] was 22 µM; in [2] it was 26.9 µM; in [3], 20.5 µM; in experiment [4] it was 29.2 µM; in [5], 23.1 µM; in experiment [6], 23.9 µM. Moreover, the TGI in [7] came to 35.3 µM; in [8], 23 µM; in experiment [9], 27.1 µM; in experiment [10], 21.9 µM.

As for `O=C1c2ccccc2-c2c1c1ccccc1c(=O)n2CCNCCNCCn1c2c(c3ccccc3c1=O)C(=O)c1ccccc1-2`, the GI50 in [1] was 3.47 µM; in experiment [2], 0.0288 µM; in experiment [3], 0.0327 µM; in [4] it was 8.91 µM; in experiment [5], 0.226 µM; in [6] it was 0.701 µM. The GI50 was 19.1 µM in [7], 1.14 µM in [8], 1.06 µM in experiment [9] and 0.338 µM in [10]. For the same compound, the TGI is 17.4 µM in experiment [1]; 4.5 µM in experiment [2]; 1.72 µM in [3]; 34.5 µM in [4]; 2.29 µM in experiment [5]; 19.3 µM in [6]. The TGI in experiment [7] was above 48.2 µM; in experiment [8], 20.5 µM; in experiment [9], 4.11 µM; in [10], 8.79 µM.

On to `COc1ccc(-c2cn[nH]c2-c2cc(OC)c(OC)c(OC)c2)cc1N`, for which the GI50 in experiment [1] is < 0.01 µM and 0.0374 µM; in [2] it was < 0.01 µM and 0.0766 µM; in [3], < 0.01 µM and 0.026 µM; in [5] it was < 0.01 µM and 0.0519 µM; in experiment [6], < 0.01 µM and 0.0339 µM; in [8] it was < 0.01 µM and 0.0484 µM. For the same compound, the GI50 in experiment [10] is below 0.01 µM. In addition, the TGI in [2], in experiment [3], in experiment [4], in [5], in experiment [6] and in experiment [7] was above 100 µM each time. Further, the TGI in [8] was above 100 µM; in [9], above 100 µM; in [10] it was 70.1 µM and > 100 µM.

With `C[C@H]1CCC/C=C/[C@@H]2C[C@H](O)C[C@H]2[C@H](O)[C@@H](S(=O)CCN(C)C)CC(=O)O1` (some centres not stated), the GI50 was 0.202 µM in experiment [1]; 0.458 µM in [2]; 0.0351 µM in [3]; 0.367 µM in [4]; 0.0966 µM in [5]; 0.26 µM in experiment [6]. Also, the GI50 in experiment [7] is 0.223 µM; in experiment [9] it was 0.468 µM; in [10] it was 0.0667 µM. The TGI in [2] is above 63.4 µM; in experiment [3], 0.154 µM; in [4], above 100 µM; in experiment [6], above 23.2 µM; in [8] it was above 100 µM; in [9] it was above 100 µM. Besides, the TGI in experiment [10] is above 100 µM.

Consider `C[C@]12CCC(=O)C(O)=C1CC[C@@H]1[C@@H]2CC[C@]2(C)C(=O)CC[C@@H]12`, for which the TGI in experiment [1], in experiment [2], in experiment [3], in experiment [4], in experiment [5] and in experiment [6] was above 100 µM each time. The TGI in experiment [7], in experiment [8], in experiment [9] and in experiment [10] was above 100 µM in each case.

For `CC(NNC(=S)N1CCCCCC1)c1ccc2ccccc2n1` (configuration not stated), the GI50 in experiment [1] is 7.45 µM; in experiment [2], 3.93 µM; in experiment [3] it was 2.57 µM; in experiment [4], 9.5 µM; in experiment [5], 1.06 µM; in experiment [6], 2.07 µM. In addition, the GI50 in experiment [7] was 13.8 µM; in experiment [8], 4.16 µM; in experiment [9], 1.21 µM; in experiment [10] it was 1.69 µM. Also, the TGI is 58.9 µM in experiment [1]; above 100 µM in experiment [2]; 41.4 µM in experiment [3]; 38.5 µM in experiment [4]; above 58.7 µM in experiment [5]; above 63 µM in [6]. Moreover, the TGI in experiment [7] is 41.5 µM; in [8], above 100 µM; in [9], 21 µM; in experiment [10], 11.5 µM.

Turning to `COc1cc2c(/C=C3/C(=O)Nc4ccccc43)c(Cl)n(Cc3ccccc3[N+](=O)[O-])c2cc1C`, the GI50 in experiment [1] is 9.16 µM; in experiment [2], 10.7 µM; in [3], 4.9 µM; in experiment [4], 15.6 µM; in [5], 26.1 µM; in [6], 5.08 µM. Also, the GI50 was 12.9 µM in experiment [7], 11.1 µM in experiment [8], 12.4 µM in experiment [9] and 6.69 µM in experiment [10]. Besides, the TGI is 27.8 µM in [1]; 27.6 µM in experiment [2]; 21.3 µM in experiment [3]; 35.4 µM in [4]; above 100 µM in [5]; 25.6 µM in [6]. Further, the TGI is 40.5 µM in experiment [7], 30.8 µM in [8], 34.1 µM in experiment [9] and 27 µM in [10].
